In US20260062422A1 (Halda Therapeutics OpCo, Inc., priority 2022, published 2026):

How the values were obtained:
VCaP cells = experiment: Cellular growth inhibition assay for VCaP cells, CellTiter-Glo; type: cell-based, human; conditions: 72 hours treatment, CellTiter-Glo 2.0
How it was run: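 GI50 values come from four-parameter curve fits of luminescence data normalized to a zero baseline. Compound, in medium with 0.5% DMSO, was added one day after plating and left for 72 h before CellTiter-Glo 2.0 addition.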

T47D cells = experiment: Cellular growth inhibition assay for T47D cells, CellTiter-Glo; type: cell-based, human; conditions: 72 hours treatment, CellTiter-Glo 2.0 cell viability
How it was run: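 Luminescence from CellTiter-Glo 2.0 after 72 h of compound exposure gives the viability signal. Cells grew in insulin-supplemented (0.2 units/mL) DMEM with 10% FBS and were treated one day after seeding at 0.5% DMSO. GI50 values come from four-parameter nonlinear regression.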

[1] = tested on: T-Rex 293 cell line SC3 cells having increased expression of androgen receptor protein due to exposure to doxycycline; experiment: Cellular growth inhibition, T-Rex 293 SC3 cells with doxycycline (androgen receptor induced), CellTiter-Glo; type: cell-based; conditions: T-Rex 293 SC3 cells with 10 ng/mL doxycycline (increased androgen receptor expression)
How it was run: (§1)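 GI50 came from a four-parameter fit of CellTiter-Glo 2.0 luminescence after 72 h compound exposure (0.5% DMSO, 37 °C), dosing 24 h post-seeding. SC3 clone cells (2500/well), transfected with wild-type androgen receptor, grew in charcoal-stripped serum medium lacking phenol red, induced with 10 ng/mL doxycycline or left uninduced.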

[2] = tested on: T-Rex 293 cell line SC3 cells lacking increased expression of androgen receptor protein; experiment: Cellular growth inhibition, T-Rex 293 SC3 cells without doxycycline, CellTiter-Glo; type: cell-based; conditions: T-Rex 293 SC3 cells not exposed to doxycycline, CellTiter-Glo 2.0
How it was run: as §1

| SMILES | GI50 (VCaP cells; Homo sapiens, VCaP, 72 h) [µM] | GI50 (T47D cells; Homo sapiens, T47D, 72 h) [µM] | GI50 ([1]; 72 h) [µM] | GI50 ([2]; 72 h) [µM] | GI50 (VCaP cells) [µM] | GI50 (T47D cells) [µM] | GI50 ([1]; 72 hours) [µM] | GI50 ([2]; 72 hours) [µM] |
| --- | --- | --- | --- | --- | --- | --- | --- | --- |
| Cc1sc2c(c1C)C(c1ccc(C3CN(C(=O)C4CCN(c5ncc(C(=O)N[C@H]6C(C)(C)[C@H](Oc7ccc(C#N)c(Cl)c7)C6(C)C)cn5)CC4)C3)cc1)=N[C@@H](C)c1nnc(C)n1-2 [Compound I-590] | < 0.5 | < 0.5 | < 0.5 | < 0.5 |  |  |  |  |
| CC[C@@H]1N=C(c2ccc(N3CC(CC4CCN(c5ncc(C(=O)N[C@H]6C(C)(C)[C@H](Oc7ccc(C#N)c(Cl)c7)C6(C)C)cn5)CC4)C3)cc2)c2c(sc(C)c2C)-n2c(C)nnc21 [Compound I-593] | < 0.5 | < 0.5 | < 0.5 | > 3 |  |  |  |  |
| CC[C@@H]1N=C(c2ccc(N3CC(CC4CCN(c5cnc(C(=O)N[C@H]6C(C)(C)[C@H](Oc7ccc(C#N)c(Cl)c7)C6(C)C)cn5)CC4)C3)cc2)c2c(sc(C)c2C)-n2c(C)nnc21 [Compound I-594] | > 3 | 1.5 to 3 | > 3 | > 3 |  |  |  |  |
| CC[C@@H]1N=C(c2ccc(N3CC(C4CCN(c5ncc(C(=O)N[C@H]6C(C)(C)[C@H](Oc7ccc(C#N)c(Cl)c7)C6(C)C)cn5)CC4)C3)cc2)c2c(sc(C)c2C)-n2c(C)nnc21 [Compound I-595] | < 0.5 | > 3 | < 0.5 | > 3 |  |  |  |  |
| CC[C@@H]1N=C(c2ccc(CC3CC4(CCN(c5ncc(C(=O)N[C@H]6C(C)(C)[C@H](Oc7ccc(C#N)c(Cl)c7)C6(C)C)cn5)CC4)C3)cc2)c2c(sc(C)c2C)-n2c(C)nnc21 [Compound I-596] | < 0.5 | > 3 | < 0.5 | > 3 |  |  |  |  |
| CC[C@@H]1N=C(c2ccc(CC3CC4(CCN(c5cnc(C(=O)N[C@H]6C(C)(C)[C@H](Oc7ccc(C#N)c(Cl)c7)C6(C)C)cn5)CC4)C3)cc2)c2c(sc(C)c2C)-n2c(C)nnc21 [Compound I-597] | < 0.5 | < 0.5 | > 3 | > 3 |  |  |  |  |
| CC[C@@H]1N=C(c2ccc(CC3CC4(CCN(c5ccc(C(=O)N[C@H]6C(C)(C)[C@H](Oc7ccc(C#N)c(Cl)c7)C6(C)C)cn5)CC4)C3)cc2)c2c(sc(C)c2C)-n2c(C)nnc21 [Compound I-598] | < 0.5 | < 0.5 | < 0.5 | > 3 |  |  |  |  |
| COCC[C@@H]1N=C(c2ccc(CC3CC4(CCN(c5ccc(C(=O)N[C@H]6C(C)(C)[C@H](Oc7ccc(C#N)c(Cl)c7)C6(C)C)cn5)CC4)C3)cc2)c2c(sc(C)c2C)-n2c(C)nnc21 [Compound I-599] | < 0.5 | < 0.5 | < 0.5 | > 3 |  |  |  |  |
| Cc1sc2c(c1C)C(c1ccc(OC3CC4(CCN(c5ncc(C(=O)N[C@H]6C(C)(C)[C@H](Oc7ccc(C#N)c(Cl)c7)C6(C)C)cn5)CC4)C3)cc1)=NC(C(F)(F)F)c1nnc(C)n1-2 (some centres unmarked) [Compound I-600] |  | > 3 | > 3 | > 3 | > 3 |  |  |  |
| Cc1sc2c(c1C)C(c1ccc(OC3CC4(CCN(c5ncc(C(=O)N[C@H]6C(C)(C)[C@H](Oc7ccc(C#N)c(Cl)c7)C6(C)C)cn5)CC4)C3)cc1)=NC(C(F)(F)F)c1nnc(C)n1-2 (some centres unmarked) [Compound I-601] |  |  |  |  | < 0.5 | > 3 | > 3 | > 3 |
| Cc1sc2c(c1C)C(c1ccc(Nc3ccc(N4CCN(c5ncc(C(=O)N[C@H]6C(C)(C)[C@H](Oc7ccc(C#N)c(Cl)c7)C6(C)C)cn5)CC4)c(C(F)(F)F)c3)cc1)=N[C@@H](C)c1nnc(C)n1-2 [Compound I-602] | > 3 | > 3 | > 3 | > 3 |  |  |  |  |
| Cc1sc2c(c1C)C(c1ccc(CCC(=O)N3CC4(C3)CN(c3ncc(C(=O)N[C@H]5C(C)(C)[C@H](Oc6ccc(C#N)c(Cl)c6)C5(C)C)cn3)C4)cc1)=N[C@@H](C)c1nnc(C)n1-2 [Compound I-603] | 0.5 to 1.5 | 0.5 to 1.5 | < 0.5 | > 3 |  |  |  |  |
| Cc1sc2c(c1C)C(c1ccc(N3CC(C4CCN(c5ncc(C(=O)N[C@H]6C(C)(C)[C@H](Oc7ccc(C#N)c(Cl)c7)C6(C)C)cn5)C4)C3)cc1)=NC1(CC1)c1nnc(C)n1-2 (some centres unmarked) [Compound I-604] | < 0.5 | 0.5 to 1.5 | < 0.5 | < 0.5 |  |  |  |  |
| Cc1sc2c(c1C)C(c1ccc(N3CC(C4CCN(c5ncc(C(=O)N[C@H]6C(C)(C)[C@H](Oc7ccc(C#N)c(Cl)c7)C6(C)C)cn5)C4)C3)cc1)=NC1(CC1)c1nnc(C)n1-2 (some centres unmarked) [Compound I-605] |  |  |  |  | < 0.5 | 0.5 to 1.5 | < 0.5 | < 0.5 |
